This note sets out measurements from ChEMBL document CHEMBL5252622, “Discovery of a brain-sparing GIRK1/4 inhibitor for pharmacological cardioversion of atrial fibrillation” (Bioorg Med Chem Lett, 2023).

pIC50: −log10 of the molar value. Converted amounts (≈) assume the structure as drawn. The source made the active and inactive calls. No cut-off for these calls is given here.

The nature of data set [1]: Cmax in rat administered as repeated dose for 6 days. As to conditions: in vivo. Set-up: time 6 day. It counts as ADME.
The nature of data set [2]: Toxicity in langendorff-perfused guinea pig heart assessed as effect on left atrial action potential duration at 10 uM. It counts as tissue-based, Cavia porcellus.
Data set [3] in a line: Equilibrium solubility of the compound at pH 7.4. It counts as physicochemical. The note with it: buffer.
A short description of data set [4]: Toxicity in rat assessed as NOAEL administered as repeated dose for 6 days. As to conditions: in vivo, time 6 day.
The subject of data set [5] is Cavia porcellus. Kind of data set: Effect on fingolimod-induced shortening of AERP in guinea pig model assessed as prolongation of shortened AERP at 3 mg/kg, iv measured at 20 to 30 mins. It counts as functional, organism-based. The note with it: time 20-30 min.
In data set [6] the target is Sodium channel protein type 5 subunit alpha (Homo sapiens, UniProt Q14524). Kind of data set: Inhibition of recombinant human Nav1.5. It counts as toxicity.
For a further data set, the system named is MDCK. As to the kind of experiment: Substrate activity at p-glycoprotein in MDCK cells overexpressing MDR1 assessed as efflux ratio of permeability from basolateral to apical side over apical to basolateral side. As to conditions: Canis lupus familiaris. It counts as cell-based.
Data set [7] is described as follows: Toxicity in langendorff-perfused guinea pig heart assessed as effect on QT interval at 10 uM. It counts as tissue-based, Cavia porcellus.
Data set [8] in a line: Toxicity in langendorff-perfused guinea pig heart assessed as effect on left ventricular action potential duration at 10 uM. It counts as tissue-based, Cavia porcellus.
The species entered for data set [9] is Cavia porcellus. Kind of data set: Effect on fingolimod-induced shortening of AERP in guinea pig model assessed as restoration of shortened AERP measured at 30 to 60 mins. It counts as functional. As to conditions: time 30-60 min.
Data set [10] can be described thus: Terminal half-life in iv dosed rat. The format is ADME, organism-based. The note with it: in vivo, read-out: beta t1/2 (converted).
In data set [11] the test system is Cavia porcellus. As to the kind of experiment: Effect on AERP in guinea pig assessed as increase in AERP interval at 3 mg/kg, iv measured for 60 mins. The format is functional, organism-based.
In data set [12] the target is T1, Potassium voltage-gated channel subfamily KQT member 1 (Homo sapiens, UniProt P51787).
T1 sequence (P51787 whole entry): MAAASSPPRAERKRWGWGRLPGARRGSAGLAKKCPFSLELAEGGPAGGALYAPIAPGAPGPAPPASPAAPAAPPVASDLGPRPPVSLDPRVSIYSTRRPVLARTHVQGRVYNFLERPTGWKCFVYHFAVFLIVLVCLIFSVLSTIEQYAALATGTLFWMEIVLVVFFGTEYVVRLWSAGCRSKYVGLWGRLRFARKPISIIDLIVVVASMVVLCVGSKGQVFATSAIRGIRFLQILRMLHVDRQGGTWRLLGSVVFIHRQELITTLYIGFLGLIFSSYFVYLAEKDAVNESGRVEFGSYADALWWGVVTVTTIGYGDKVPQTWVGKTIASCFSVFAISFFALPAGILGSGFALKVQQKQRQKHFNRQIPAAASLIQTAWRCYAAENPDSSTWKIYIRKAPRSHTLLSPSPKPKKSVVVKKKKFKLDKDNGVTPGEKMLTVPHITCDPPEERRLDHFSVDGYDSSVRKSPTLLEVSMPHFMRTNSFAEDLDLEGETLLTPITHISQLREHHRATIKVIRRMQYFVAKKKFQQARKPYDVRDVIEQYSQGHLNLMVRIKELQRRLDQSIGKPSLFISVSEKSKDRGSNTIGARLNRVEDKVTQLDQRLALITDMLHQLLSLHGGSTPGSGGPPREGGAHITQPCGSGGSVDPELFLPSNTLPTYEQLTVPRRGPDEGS
Kind of data set: Inhibition of recombinant human KCNQ1. It counts as toxicity.

A short description of data set [13]: Brain to plasma ratio in iv dosed rat measured after 30 mins. The format is ADME, organism-based. The note with it: read-out: BPR.
Another data set deals with T2, Kir3.1/Kir3.2 (Homo sapiens, UniProt P48051+P48549).
T2 sequence (P48549 whole entry): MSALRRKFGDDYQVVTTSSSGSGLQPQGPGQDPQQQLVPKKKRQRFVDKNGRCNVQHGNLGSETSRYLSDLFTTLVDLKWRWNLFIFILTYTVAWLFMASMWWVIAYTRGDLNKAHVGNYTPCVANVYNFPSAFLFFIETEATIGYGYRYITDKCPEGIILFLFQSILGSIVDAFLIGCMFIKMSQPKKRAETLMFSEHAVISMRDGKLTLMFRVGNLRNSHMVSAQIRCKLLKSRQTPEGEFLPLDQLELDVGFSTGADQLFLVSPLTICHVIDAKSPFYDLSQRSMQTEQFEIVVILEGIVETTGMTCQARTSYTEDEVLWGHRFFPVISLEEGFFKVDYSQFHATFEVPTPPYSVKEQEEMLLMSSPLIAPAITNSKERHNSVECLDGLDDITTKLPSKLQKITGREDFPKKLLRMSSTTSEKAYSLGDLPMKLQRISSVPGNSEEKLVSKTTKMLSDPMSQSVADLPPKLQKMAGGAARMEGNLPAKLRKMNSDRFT
T2 sequence (P48051 whole entry): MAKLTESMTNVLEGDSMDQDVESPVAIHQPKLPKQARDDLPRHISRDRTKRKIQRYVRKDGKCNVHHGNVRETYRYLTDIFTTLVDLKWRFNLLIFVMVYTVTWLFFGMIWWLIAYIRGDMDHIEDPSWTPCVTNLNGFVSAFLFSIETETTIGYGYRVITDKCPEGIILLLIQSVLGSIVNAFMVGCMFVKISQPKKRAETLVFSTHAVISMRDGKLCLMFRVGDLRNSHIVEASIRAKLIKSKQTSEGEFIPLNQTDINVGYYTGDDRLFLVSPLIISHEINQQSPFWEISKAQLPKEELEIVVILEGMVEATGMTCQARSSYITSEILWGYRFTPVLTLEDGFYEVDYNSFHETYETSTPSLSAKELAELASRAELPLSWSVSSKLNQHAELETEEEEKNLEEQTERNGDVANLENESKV
As to the kind of experiment: Inhibition of GIRK1/2 (unknown origin) channel. The format is protein-complex assay.

Data set [14] has as its target Voltage-dependent L-type calcium channel subunit alpha-1C (Homo sapiens, UniProt Q13936). Kind of data set: Inhibition of recombinant human Cav1.2. It counts as toxicity.
Data set [15] is described as follows: Clearance in iv dosed rat. The format is ADME, organism-based. The note with it: in vivo.
A short description of data set [16]: Cmax in rat administered as single dose. It counts as ADME. As to conditions: in vivo.
Data set [17] in a line: Toxicity in rat assessed as NOAEL administered as single dose. The note with it: in vivo.
Data set [18] in a line: Toxicity in langendorff-perfused guinea pig heart assessed as effect on PR interval at 10 uM. The format is tissue-based, Cavia porcellus.
The nature of data set [19]: Toxicity in langendorff-perfused guinea pig heart assessed as effect on coronary artery perfusion pressure at 10 uM. It counts as tissue-based, Cavia porcellus.
Another data set deals with T3, Kir3.1/Kir3.4 (Homo sapiens, UniProt P48544+P48549).
T3 sequence (P48549 whole entry): T2 sequence (P48549 whole entry)
T3 sequence (P48544 whole entry): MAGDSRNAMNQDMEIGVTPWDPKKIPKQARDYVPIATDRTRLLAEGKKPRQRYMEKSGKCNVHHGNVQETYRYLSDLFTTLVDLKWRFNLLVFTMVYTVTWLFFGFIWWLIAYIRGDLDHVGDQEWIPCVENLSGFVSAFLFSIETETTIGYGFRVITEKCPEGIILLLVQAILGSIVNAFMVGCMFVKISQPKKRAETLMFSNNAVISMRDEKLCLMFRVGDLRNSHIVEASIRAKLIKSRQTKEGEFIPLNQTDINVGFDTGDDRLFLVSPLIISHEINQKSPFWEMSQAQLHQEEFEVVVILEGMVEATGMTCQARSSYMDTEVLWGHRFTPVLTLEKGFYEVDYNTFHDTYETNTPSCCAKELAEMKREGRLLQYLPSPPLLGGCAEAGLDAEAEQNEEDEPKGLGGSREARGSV
As to the kind of experiment: Inhibition of recombinant human GIRK1/4 channel. The format is protein-complex assay.

Data set [20] has as its target Voltage-gated inwardly rectifying potassium channel KCNH2 (Homo sapiens, UniProt Q12809). As to the kind of experiment: Inhibition of recombinant hERG in the presence of dofetilide by competitive binding assay. It counts as toxicity.
The nature of data set [21]: Apparent permeability across apical to basolateral side in MDCK cells. The format is ADME, cell-based, Canis lupus familiaris. The note with it: dog.

Chain of Voltage-gated inwardly rectifying potassium channel KCNH2 (Q12809 whole entry): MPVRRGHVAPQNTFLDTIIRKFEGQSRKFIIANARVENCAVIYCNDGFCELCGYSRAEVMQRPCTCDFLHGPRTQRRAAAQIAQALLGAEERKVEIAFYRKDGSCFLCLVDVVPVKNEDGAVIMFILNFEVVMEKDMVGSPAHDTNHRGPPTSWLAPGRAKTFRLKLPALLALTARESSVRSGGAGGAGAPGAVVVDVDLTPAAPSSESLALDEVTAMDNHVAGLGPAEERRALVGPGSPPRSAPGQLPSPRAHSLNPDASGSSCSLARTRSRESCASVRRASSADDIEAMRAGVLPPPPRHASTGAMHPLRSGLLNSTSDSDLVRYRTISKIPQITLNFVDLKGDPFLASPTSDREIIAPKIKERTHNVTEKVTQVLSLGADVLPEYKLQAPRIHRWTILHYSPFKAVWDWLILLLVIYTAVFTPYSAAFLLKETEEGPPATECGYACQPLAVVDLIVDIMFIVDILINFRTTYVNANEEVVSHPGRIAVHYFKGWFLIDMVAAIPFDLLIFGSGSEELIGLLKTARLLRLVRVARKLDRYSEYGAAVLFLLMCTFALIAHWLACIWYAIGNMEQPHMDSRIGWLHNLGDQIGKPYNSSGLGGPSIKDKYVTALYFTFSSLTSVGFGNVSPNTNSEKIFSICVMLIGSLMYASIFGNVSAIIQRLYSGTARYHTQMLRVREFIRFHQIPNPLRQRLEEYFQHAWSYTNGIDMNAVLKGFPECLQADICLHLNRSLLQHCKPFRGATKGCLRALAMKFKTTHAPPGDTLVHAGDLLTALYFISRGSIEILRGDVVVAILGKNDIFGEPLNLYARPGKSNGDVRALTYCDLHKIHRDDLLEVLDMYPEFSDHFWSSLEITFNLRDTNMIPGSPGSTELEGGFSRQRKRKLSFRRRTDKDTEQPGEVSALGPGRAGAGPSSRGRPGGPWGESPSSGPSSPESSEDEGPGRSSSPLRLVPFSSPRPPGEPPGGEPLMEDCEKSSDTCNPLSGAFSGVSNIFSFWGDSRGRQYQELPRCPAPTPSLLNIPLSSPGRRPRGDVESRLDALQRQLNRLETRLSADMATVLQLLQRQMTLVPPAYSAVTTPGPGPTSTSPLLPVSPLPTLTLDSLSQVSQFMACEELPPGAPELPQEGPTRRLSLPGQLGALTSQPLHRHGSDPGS
Chain of Sodium channel protein type 5 subunit alpha (Q14524 whole entry): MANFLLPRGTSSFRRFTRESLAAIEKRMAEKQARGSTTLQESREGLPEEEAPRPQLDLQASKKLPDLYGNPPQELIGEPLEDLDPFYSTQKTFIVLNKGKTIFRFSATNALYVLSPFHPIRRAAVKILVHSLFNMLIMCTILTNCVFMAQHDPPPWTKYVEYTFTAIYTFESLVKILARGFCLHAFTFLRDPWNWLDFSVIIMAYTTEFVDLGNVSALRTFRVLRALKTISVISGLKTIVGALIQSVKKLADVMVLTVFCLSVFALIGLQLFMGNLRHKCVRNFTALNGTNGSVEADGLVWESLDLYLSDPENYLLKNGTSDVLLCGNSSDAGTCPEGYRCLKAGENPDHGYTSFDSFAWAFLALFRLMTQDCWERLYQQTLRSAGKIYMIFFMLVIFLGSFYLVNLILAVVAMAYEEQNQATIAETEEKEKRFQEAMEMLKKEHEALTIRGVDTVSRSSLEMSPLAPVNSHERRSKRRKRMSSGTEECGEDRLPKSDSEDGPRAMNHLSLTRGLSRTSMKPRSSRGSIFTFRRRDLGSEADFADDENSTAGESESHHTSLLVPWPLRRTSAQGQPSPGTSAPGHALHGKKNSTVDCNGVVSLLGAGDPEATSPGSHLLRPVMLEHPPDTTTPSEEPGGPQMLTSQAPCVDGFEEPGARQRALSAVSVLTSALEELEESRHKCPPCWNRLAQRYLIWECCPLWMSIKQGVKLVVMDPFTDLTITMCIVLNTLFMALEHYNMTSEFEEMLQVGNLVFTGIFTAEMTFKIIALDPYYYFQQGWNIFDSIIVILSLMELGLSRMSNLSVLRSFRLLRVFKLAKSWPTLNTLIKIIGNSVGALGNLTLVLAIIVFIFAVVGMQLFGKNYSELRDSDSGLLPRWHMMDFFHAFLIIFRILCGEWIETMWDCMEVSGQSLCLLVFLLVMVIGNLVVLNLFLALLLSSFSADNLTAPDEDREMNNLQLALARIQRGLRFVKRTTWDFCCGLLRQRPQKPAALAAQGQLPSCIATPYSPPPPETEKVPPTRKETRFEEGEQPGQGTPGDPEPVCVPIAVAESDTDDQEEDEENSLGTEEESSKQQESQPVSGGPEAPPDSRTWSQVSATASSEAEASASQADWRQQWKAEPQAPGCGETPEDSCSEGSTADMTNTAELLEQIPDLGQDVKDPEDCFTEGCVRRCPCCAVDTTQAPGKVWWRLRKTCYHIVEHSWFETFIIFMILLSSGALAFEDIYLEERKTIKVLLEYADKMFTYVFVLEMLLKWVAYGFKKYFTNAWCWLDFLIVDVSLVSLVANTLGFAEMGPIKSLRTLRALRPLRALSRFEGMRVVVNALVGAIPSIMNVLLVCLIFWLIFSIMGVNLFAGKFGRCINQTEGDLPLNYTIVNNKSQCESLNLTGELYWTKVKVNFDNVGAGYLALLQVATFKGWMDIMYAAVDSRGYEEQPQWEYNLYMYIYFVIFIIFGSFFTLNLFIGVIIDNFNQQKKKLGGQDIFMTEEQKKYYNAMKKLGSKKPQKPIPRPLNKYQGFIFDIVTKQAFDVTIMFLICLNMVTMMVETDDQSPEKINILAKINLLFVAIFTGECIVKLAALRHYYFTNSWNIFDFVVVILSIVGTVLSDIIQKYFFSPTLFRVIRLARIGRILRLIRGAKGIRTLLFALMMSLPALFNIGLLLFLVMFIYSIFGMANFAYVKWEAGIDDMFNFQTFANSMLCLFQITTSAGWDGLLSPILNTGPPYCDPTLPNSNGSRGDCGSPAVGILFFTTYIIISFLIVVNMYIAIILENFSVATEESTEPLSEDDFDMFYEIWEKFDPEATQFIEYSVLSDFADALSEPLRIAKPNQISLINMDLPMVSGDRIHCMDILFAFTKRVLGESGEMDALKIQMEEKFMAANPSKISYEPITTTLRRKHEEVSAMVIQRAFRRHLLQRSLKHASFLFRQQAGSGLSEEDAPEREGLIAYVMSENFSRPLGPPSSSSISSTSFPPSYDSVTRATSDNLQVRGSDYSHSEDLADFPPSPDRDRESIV

The Cmax is the maximum level reached in the sampled fluid or tissue. The thermodynamic solubility is the concentration in solution at equilibrium with solid. A word on the NOAEL: it is the highest dose or exposure tested at which no adverse effect was seen. The term pIC50 denotes the IC50 on a negative log10 scale, so that one unit is a factor of ten. In general, EC90 refers to the concentration at which the effect reaches the 90% level. Usually clearance stands for a measure of how efficiently the substance is removed, as volume per time. Lower therefore signals a low capacity for elimination. As usually defined, the Papp A→B is the apparent permeability from the apical to the basolateral side of a cell layer. For `O=c1cc(CO)n(-c2c(Cl)cccc2Cl)c2c(Cl)cnc(OC[C@H](O)CO)c12`, the Cmax in [1] and in data set [16] was 193 µM each time. For the same compound, the Activity entry in [2], in data set [7], in [8], in data set [18] and in data set [19] was “Non-Toxic” throughout. The same compound showed a thermodynamic solubility in [3] of 1000 µM (≈ 446 µg/mL). The NOAEL at 144 h in data set [4] came to 75 mg/kg. Besides, the result in the data set with Cavia porcellus [5] and in the data set on Cavia porcellus [11] was Active. Also, the pIC50 in data set [6] is less than 4.30; in data set [12] it was less than 4.30; against Kir3.1/Kir3.2, 7.00; in data set [14], less than 4.30; at Kir3.1/Kir3.4 it was 7.00; in data set [20], less than 4.30. Besides, the Ratio with MDCK was determined as 13.5. For the same compound, the EC90 in the data set filed under Cavia porcellus [9] came to 1.2 µM. For the same compound, in data set [10], the half-life is 1.3 h. In addition, the Kp at 0.5 h in data set [13] was 0.02. The clearance in data set [15] worked out at 2.1 L/h/kg. In addition, the NOAEL in [17] was 75 mg/kg. The apical-to-basolateral permeability (Papp A→B) in [21] is 87 nm/s.
